Results as given in US20260265216A1, “NOVEL THIOREDOXIN REDUCTASE INHIBITORS” (GENEXPLAIN GMBH, priority 2021, published 2026).

Assays:
[1] = biological target: T1, recombinant purified TrxR1 (Homo sapiens, UniProt Q16881); assay: TrxR1 enzymatic activity measurement in vitro; format: biochemical; conditions: recombinant purified enzyme in vitro
T1 construct: made in house; host or cells: Release Factor 1-depleted E. coli strain
T1 sequence (Q16881 1-499 isoform Q16881-5): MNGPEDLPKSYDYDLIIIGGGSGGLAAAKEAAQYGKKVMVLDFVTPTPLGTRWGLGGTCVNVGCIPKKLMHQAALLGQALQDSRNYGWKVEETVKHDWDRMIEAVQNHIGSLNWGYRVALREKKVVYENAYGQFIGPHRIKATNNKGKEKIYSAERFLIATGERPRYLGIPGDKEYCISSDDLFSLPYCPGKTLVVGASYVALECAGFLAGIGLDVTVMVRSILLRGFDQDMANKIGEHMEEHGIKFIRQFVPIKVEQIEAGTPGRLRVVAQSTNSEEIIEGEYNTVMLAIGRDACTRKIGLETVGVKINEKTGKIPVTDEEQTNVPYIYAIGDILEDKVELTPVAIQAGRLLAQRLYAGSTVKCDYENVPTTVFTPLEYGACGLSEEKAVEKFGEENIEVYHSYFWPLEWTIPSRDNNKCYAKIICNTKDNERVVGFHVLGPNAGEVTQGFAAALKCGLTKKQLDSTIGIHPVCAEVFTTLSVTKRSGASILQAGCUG
Protocol: TrxR1 enzyme was recombinantly produced with high Sec contents in a specific Release Factor 1-depleted E. coli strain and purified as previously described (Arnér E S J, Holmgren A, in Current Protocols in Toxicology, Maines M, Costa L, Reed D, Sassa S, Eds. (John Wiley & Sons, Inc., New York, 2000), pp. 7.4.1-7.4.14). TrxR1 and GSR (Sigma) recombinant enzyme assays were performed in a reaction buffer containing 50 mM Tris pH 7.5 with 2 mM EDTA and 0.1 mg/mL bovine serum albumin as described previously (Arnér E S J, Holmgren A, in Current Protocols in Toxicology, Maines M, Costa L, Reed D, Sassa S, Eds. (John Wiley & Sons, Inc., New York, 2000), pp. 7.4.1-7.4.14). Briefly, assays were performed in triplicate using 96-well plates, with activity inferred from absorbance changes using a Spectra Max plate reader. Results of recombinant enzyme assays were normalized to DMSO and to no enzyme controls.
We used recombinant purified TrxR1 and GR in an in vitro assay as described in methods section.

[2] = system: OVCAR4; assay: Growth suppression, cancer cell line panel (resazurin); format: cell-based; conditions: OVCAR4, 0.4-25.6 μM, 48 hours
Protocol: (§1) Breast, colon, ovarian, cervical, liver and lung carcinoma cell lines were grown in DMEM supplemented with 10% FBS, and antibiotics were cultured at 37° C. and 5% CO2. Osteosarcoma, melanoma, lymphoma, neuroblastoma and leukemia cell lines were cultured in RPMI 1640 with 10% FBS and antibiotics. An oxygen concentration of 0.3% was obtained by flushing a sealed box containing the cells with premixed gas composed of 95% nitrogen (N2) and 5% CO2 (AGA AB, Sweden). To obtain an oxygen concentration of 0.05%, the cells were flushed with the premixed gas continuously throughout the experiment.
(§2) Cells were grown in 96-well plates at a density of 3000 cells per well with or without doxycycline and treated with compounds. After 48 hours of incubation the proliferative cell reagent resazurin (Thermo Fisher Scientific) was added to the cells. The degree of resazurin reduction, which reflects cell viability, was measured by microplate reader by monitoring the absorbance at 570 nm and 600 nm, according to the manufacturer.
(§3) The panel of cancer cell lines, including carcinomas of breast (MDA-MB231, SKBR3, T47D, MCF7; BT549, BT20, MDA-MB468), colon, (SW480, RKO, HT29, HCT116) ovarian (OVCAR3, OVCAR4, OVCAR8), cervical (SW756, C33A), liver (HEPG2) and lung (H23), osteosarcoma (SJSA and U2OS), melanoma (ME180), lymphoma (Raji, HDLM2), neuroblastoma (SKNAS, IMR32) and leukemia (NB4, K562) were treated with increasing concentrations of 1d*HCl: 0.4; 0.8; 1.6; 3.2; 6.4; 12.8; 25.6 μM in 96-well plates. After 48 hours of incubation the proliferative cell reagent resazurin was added to the cells. The degree of resazurin reduction, which reflects cell viability, was measured by microplate reader by monitoring the absorbance at 570 nm and 600 nm, according to the manufacturer, and the IC50 and AUC (area under curve) were determined (Table 2). As could be seen in Table 2, 1d*HCl suppressed the growth of cancer cell lines of a different origin, including carcinomas, osteosarcomas, melanoma, lymphoma, leukemia and neuroblastoma. These findings open up a possibility of the application of the present invention in anti-cancer therapy in a broad range of tumor types.

[3] = system: C33A; assay: as above; format: cell-based; conditions: 0.4-25.6 μM, 48 hours
Protocol: as §1, §2, §3

[4] = system: U2OS; assay: as above; format: cell-based; conditions: 0.4-25.6 μM, 48 hours
Protocol: as §1, §2, §3

[5] = system: OVCAR3; assay: as above; format: cell-based; conditions: OVCAR3, 0.4-25.6 μM, 48 hours
Protocol: as §1, §2, §3

[6] = system: IMR32; assay: as above; format: cell-based; conditions: IMR32, 0.4-25.6 μM, 48 hours
Protocol: as §1, §2, §3

[7] = system: MCF7 cells; assay: Apoptosis detection by FACS (Annexin V); format: cell-based; conditions: 2 μM, 24 h
Protocol: Cells were placed on 12-well plate at a density of 30000/cm^2 and treated with compounds. After 24 h incubation cells were harvested by trypsinization, fixed with 70% ethanol, treated with RNase A (0.25 mg/ml) and stained with Annexin V according to manufacturer's instructions (Thermo Fisher Scientific). Samples were analyzed on a Becton Dickinson FACScan. Data were analyzed by the CellQuest software, version 3.2.1.
To find out whether the growth suppression by 1d*HCl is due to triggering cell death by apoptosis, we performed the Annexin V-mediated staining of phosphatidylserine, exposed on surface of cells undergoing apoptotic cell death. We detected Annexin V-positive cells using FACS.

For `Cl.N#Cc1c(-c2cccnc2)[n+]([O-])c2cc(F)c(N3CCOCC3)cc2[n+]1[O-]` [Compound 1d*HCl, 6-Fluoro-7-(morpholin-4-yl)-3-(pyridin-3-yl)quinoxaline-2-carbonitrile-1,4-dioxide hydrochloride], the “inhibition of enzymatic activity of TrxR1” value [1] was “efficiently inhibited the enzymatic activity of TrxR1 in a dose- and time-dependent manner”, the “AUC (area under curve)” value [2] was 3.7 and the “AUC (area under curve)” value [3] was 21. The “AUC (area under curve)” value [4] was 2.10, the “AUC (area under curve)” value [5] was 4.813 and the “AUC (area under curve)” value [6] was 6.40. For the same compound, the “Annexin V-positive cells (apoptosis)” value [7] was “induced Annexin V-positive cells statistically significantly”.
